{"source": "patent US11274131B2", "about": "“IgM-mediated receptor clustering and cell modulation” (MAYO FOUNDATION FOR MEDICAL EDUCATION AND RESEARCH, priority 2007, dated 2022)", "key": {"[1]": {"tested_on": "mouse DC", "assay": "Cap formation / FRET on mouse DC", "assay_type": "cell-based", "method": "DC of murine origin were stained with anti-Class II-FITC (MF/114.15.2), and either anti-CD80-PE (16.10A1)/CD86-PE (GL-1), or anti-CD11c-PE (N418). DC of human origin were stained with anti-Class II-FITC (LN3) and anti-CD80-PE (2D10.4)/CD86-PE (IT2.2). All incubations were carried out for 15 minutes at 37° C. The cells were subsequently stimulated with 10 μg/ml of control (sHIgM39) or B7-DC XAb, and were observed every 5 minutes using time lapse confocal imaging at 40.times magnification with a LSM510 Laser scanning confocal microscope having a 37° C. stage (Carl-Zeiss Inc, Oberkochen, Germany). Jurkat cells were pre stained with anti-human CD28-FITC (CD28.2) for 15 minutes, followed by addition of 10 μg/ml of MTAb control antibody sHIgM39, MTAb sHIgM22, or anti-K^b IgM (28-13-3), and were and analyzed in the same manner as the DC.\nThe flow cytometry approach for FRET was used as a way of quantifying molecular aggregation on the cell surface and was carried out as described previously (Block et al. (2001) J. Immunol. 167:821-826). Briefly, DC of murine origin were stained with anti-Class II APC (M5/114.15.2) and anti-CD80-PE (16.10A1)/CD86-PE(GL-1) for 15 minutes to visualize FRET between these molecules. Monitoring for FRET induced by interaction between TREM-2 and Class-II molecules was achieved by incubating the cells with the abovementioned anti-Class-II antibody and anti-TREM-2-PE (237920). DC of human origin were stained for 15 minutes with APC-anti class II (LN3) and anti-CD80-PE (2D10.4)/CD86-PE (IT2.2). In experiments involving blocking of B7-DC, both fluorophore labeled antibodies and purified anti-mouse B7-DC (TY-25) or purified anti-human B7-DC (MIH18) IgG monoclonal antibody was added at 10 μg/ml for 15 minutes. Jurkat cells were stained with anti-human Class I-PE (G46-2.6) or anti-human CD4 (RPA-T4) and anti-human CD28-APC (CD28.2) for 15 minutes. Cells were stimulated with control antibody or B7-DC XAb or purified anti-mouse class II IgM (25-9-3) (experiments involving DC) or sHIgM22 (experiments involving Jurkat cells) and aliquots from different groups were taken at different time points. After 15 minutes of incubation, the cells were washed and fixed in 2% paraformaldehyde prior to analysis by FACS using a FACSCALIBER™ (BD Biosciences, Franklin Lakes, N.J.). Data collected as log10 fluorescence were analyzed using CELLQUEST™ (BD Biosciences). The FRET signal was visualized in FL3 channel (650-670 nm LP)."}, "[2]": {"tested_on": "mouse DC", "assay": "Calcium flux assay, mouse DC", "assay_type": "cell-based", "method": "Changes in the levels of intracellular Ca^2+ were assessed in Indol-loaded cells by flow cytometry as described previously (Takahashi et al. (2005) J. Exp. Med. 201:647-657). Briefly, 5×10^6 DC/ml were incubated with 5 μM Indo-1 (Calbiochem) at 37° C. for 30 minutes. The cells were washed twice in serum free media and resuspended at 10^6/ml in PBS containing 0.5% BSA. The samples were analyzed by flow cytometry using a UV laser. Violet (390 nm) and blue (500 nm) fluorescence emissions were recorded. Baseline was recorded for two minutes. Antibody was added to the cell suspension (10 μg/ml of control antibody or B7-DC XAb) and the measurements were recorded for 8 additional minutes. In blocking experiments, mouse or human DC were pre-incubated with 10 μg/ml of purified anti-mouse B7-DC antibody (TY-25) or purified anti-human B7-DC antibody (MIH18) for 15 minutes, followed by collection of data for calcium flux as described above. Ionomycin added at 1 μg/ml after 2 minutes served as a positive control. The blue to violet ratio was calculated using FlowJo software (Tristar, Ashland, Oreg.)."}}, "data": [{"substance": "B7-DC XAb: human monoclonal IgM from a Waldenstrom's macroglobulinemia patient that binds and cross-links B7-DC on DC", "values": [{"measurement": "co-capping of CD80 and CD86 or CD11c with class II molecules", "setting": "[1]; DC from CD80/CD86 double knock out and MHC class II knock out mice", "result": "still occurred"}, {"measurement": "reorganization of tagged class II, CD80, CD86 into a capped cluster", "setting": "[1]; mouse DC", "result": "reorganized into a distinctly capped cluster"}, {"measurement": "FRET among class II, CD80 and CD86", "setting": "[1]; mouse DC, within ten minutes", "result": "strong FRET signal"}, {"measurement": "time to association of TREM-2 with class II molecules by FRET", "setting": "[1]; mouse DC, increased by 15 minutes", "result": "≤ 5", "unit": "min"}, {"measurement": "intracellular calcium signal", "setting": "[2]", "result": "prolonged calcium signals"}]}]}
